Like-named read-outs stand apart in the source and are kept apart here.
Legend:
[1] = tested on: Stagonospora nodorum (Leptosphaeria nodorum—LEPTNO); assay: In vitro fungal growth inhibition, Stagonospora nodorum (LEPTNO); assay type: cell-based; details: Leptosphaeria, read-out: LEPTNO in vitro Growth Inhibition
[2] = tested on: Phytophthora infestans (PHYTIN); assay: microbe, parasite or virus in culture; assay type: cell-based; details: Phytophthora infestans, read-out: PHYTIN in vitro Growth Inhibition
[3] = tested on: Rhizoctonia solani (RHIZSO); assay: microbe, parasite or virus in culture; assay type: cell-based; details: Rhizoctonia solani, read-out: RHIZSO in vitro Growth Inhibition
Ustilago maydis (USTIMA) = assay: microbe, parasite or virus in culture; assay type: cell-based; details: Mycosarcoma maydis, read-out: USTIMA in vitro Growth Inhibition
[4] = tested on: Leptosphaeria nodorum—LEPTNO; assay: Glume Blotch of Wheat, in vivo whole plant, 24 Hour Protectant; details: Leptosphaeria, control of fungal infection vs untreated plants, read-out: LEPTNO in vivo 1 Day Protectant
Erysiphe graminis—ERYSGT = assay: Powdery Mildew of Wheat, in vivo whole plant, 24 Hour Protectant; details: Erysiphe, control of fungal infection vs untreated plants, read-out: ERYSGT in vivo 1 Day Protectant
[5] = tested on: Puccinia recondita—PUCCRT; assay: Brown Rust of Wheat, in vivo whole plant, 24 Hour Protectant; details: control of fungal infection vs untreated plants; for pest or weed control at 100 ppm: Puccinia, read-out: PUCCRT in vivo 1 Day Protectant
[6] = tested on: Phytophthora infestans—PHYTIN; assay: whole plant or invertebrate; assay type: in vivo; details: Phytophthora, in Solanum lycopersicum, 24 h, read-out: PHYTIN in vivo 1 Day Protectant
[7] = tested on: Magnaporthe grisea (Pyricularia oryzae—PYRIOR); assay: microbe, parasite or virus in culture; assay type: cell-based; details: Pyricularia oryzae, read-out: PYRIOR in vitro Growth Inhibition
Septoria tritici—SEPTTR = assay: Leaf Blotch of Wheat, in vivo whole plant, 24 Hour Protectant; details: Zymoseptoria tritici, 24 h, control of fungal infection vs untreated plants, read-out: SEPTTR in vivo 1 Day Protectant
[8] = tested on: Mycosphaerella graminicola (Septoria tritici—SEPTTR); assay: In vitro fungal growth inhibition, Mycosphaerella graminicola (SEPTTR); assay type: cell-based; details: Zymoseptoria tritici, read-out: SEPTTR in vitro Growth Inhibition
[9] = wheat plants sprayed at 100 ppm, inoculated after 24 hours
[10] = 100 ppm spray, 24 hour protectant, wheat
[11] = 100 ppm spray, wheat, 24 hour protectant

## COc1ccnc(C(=O)N[C@@H]2O[C@H](COC(C)=O)[C@H](OC(C)=O)[C@H](OC(C)=O)[C@H]2OC(C)=O)c1OC(C)=O [Compound 591]
[1]; 25 ppm in the growth medium
  inhibition at 25 ppm: < 80%
[2]
  inhibition at 25 ppm: < 80%
[3]
  inhibition at 25 ppm: < 80%
Ustilago maydis (USTIMA)
  inhibition at 25 ppm: < 80%
[4]; [9]
  pest or weed control at 100 ppm: 25 to 74%
Erysiphe graminis—ERYSGT; [9]
  pest or weed control at 100 ppm: < 25%
[5]; [9]
  pest or weed control at 100 ppm: < 25%
[6]
  pest or weed control at 100 ppm: < 25%
[7]
  inhibition at 25 ppm: < 80%
Septoria tritici—SEPTTR; [9]
  pest or weed control at 100 ppm: 25 to 74%
[8]; 25 ppm in the growth medium
  inhibition at 25 ppm: < 80%

## COc1ccnc(C(=O)NC2CC(C)(C)C=CC(C)C2C)c1O (stereo not shown) [Compound 279]
[1]; 25 ppm in growth medium
  inhibition at 25 ppm: > 80%
[2]
  inhibition at 25 ppm: > 80%
[3]
  inhibition at 25 ppm: < 80%
Ustilago maydis (USTIMA)
  inhibition at 25 ppm: < 80%
[4]; [10]
  pest or weed control at 100 ppm: 25 to 74%
Erysiphe graminis—ERYSGT; [10]
  pest or weed control at 100 ppm: 25 to 74%
[5]; [10]
  pest or weed control at 100 ppm: < 25%
[6]
  pest or weed control at 100 ppm: 25 to 74%
[7]
  inhibition at 25 ppm: < 80%
Septoria tritici—SEPTTR; [10]
  pest or weed control at 100 ppm: 25 to 74%
[8]; 25 ppm in growth medium
  inhibition at 25 ppm: > 80%

## COc1ccc(CNC(=O)c2nc(Br)ccc2O)cc1 [Compound 482]
[1]; 25 ppm in the growth medium
  inhibition at 25 ppm: < 80%
[2]
  inhibition at 25 ppm: < 80%
[3]
  inhibition at 25 ppm: < 80%
Ustilago maydis (USTIMA)
  inhibition at 25 ppm: < 80%
[4]; [9]
  pest or weed control at 100 ppm: 25 to 74%
Erysiphe graminis—ERYSGT; [9]
  pest or weed control at 100 ppm: < 25%
[5]; [9]
  pest or weed control at 100 ppm: < 25%
[6]
  pest or weed control at 100 ppm: < 25%
[7]
  inhibition at 25 ppm: < 80%
Septoria tritici—SEPTTR; [9]
  pest or weed control at 100 ppm: 25 to 74%
[8]; 25 ppm in the growth medium
  inhibition at 25 ppm: < 80%

## O=C(Nc1cccc(C(F)(F)F)c1)c1ncccc1O [Compound 214]
[1]; 25 ppm in growth medium
  inhibition at 25 ppm: < 80%
[2]
  inhibition at 25 ppm: < 80%
[3]
  inhibition at 25 ppm: < 80%
Ustilago maydis (USTIMA)
  inhibition at 25 ppm: < 80%
[4]; [10]
  pest or weed control at 100 ppm: < 25%
Erysiphe graminis—ERYSGT; [10]
  pest or weed control at 100 ppm: < 25%
[5]; [10]
  pest or weed control at 100 ppm: < 25%
[6]
  pest or weed control at 100 ppm: < 25%
[7]
  inhibition at 25 ppm: < 80%
Septoria tritici—SEPTTR; [10]
  pest or weed control at 100 ppm: < 25%
[8]; 25 ppm in growth medium
  inhibition at 25 ppm: < 80%

## COc1cccc(Oc2cccc(NC(=O)c3nccc(OC)c3O)c2)c1 [Compound 431]
[1]; 25 ppm in growth medium
  inhibition at 25 ppm: > 80%
[2]
  inhibition at 25 ppm: < 80%
[3]
  inhibition at 25 ppm: < 80%
Ustilago maydis (USTIMA)
  inhibition at 25 ppm: < 80%
[4]; [11]
  pest or weed control at 100 ppm: < 25%
Erysiphe graminis—ERYSGT; [11]
  pest or weed control at 100 ppm: < 25%
[5]; [11]
  pest or weed control at 100 ppm: < 25%
[6]
  pest or weed control at 100 ppm: < 25%
[7]
  inhibition at 25 ppm: < 80%
Septoria tritici—SEPTTR; [11]
  pest or weed control at 100 ppm: 25 to 74%
[8]; 25 ppm in growth medium
  inhibition at 25 ppm: > 80%

## COc1ccnc(C(=O)Nc2cc(C)c(OC(=O)c3ccc(C(F)(F)F)cc3)c(C)c2)c1O [Compound 457]
[1]; 25 ppm in growth medium
  inhibition at 25 ppm: > 80%
[2]
  inhibition at 25 ppm: < 80%
[3]
  inhibition at 25 ppm: < 80%
Ustilago maydis (USTIMA)
  inhibition at 25 ppm: < 80%
[4]; [11]
  pest or weed control at 100 ppm: < 25%
Erysiphe graminis—ERYSGT; [11]
  pest or weed control at 100 ppm: < 25%
[5]; [11]
  pest or weed control at 100 ppm: < 25%
[6]
  pest or weed control at 100 ppm: < 25%
[7]
  inhibition at 25 ppm: < 80%
Septoria tritici—SEPTTR; [11]
  pest or weed control at 100 ppm: 25 to 74%
[8]; 25 ppm in growth medium
  inhibition at 25 ppm: < 80%

## COc1ccnc(C(=O)N[C@@H]2CC3CC2C[C@@H]3COCc2cccc(C(F)(F)F)c2)c1O (stereo partly shown) [Compound 297]
[1]; 25 ppm in growth medium
  inhibition at 25 ppm: > 80%
[2]
  inhibition at 25 ppm: < 80%
[3]
  inhibition at 25 ppm: > 80%
Ustilago maydis (USTIMA)
  inhibition at 25 ppm: < 80%
[4]; [10]
  pest or weed control at 100 ppm: 25 to 74%
Erysiphe graminis—ERYSGT; [10]
  pest or weed control at 100 ppm: < 25%
[5]; [10]
  pest or weed control at 100 ppm: < 25%
[6]
  pest or weed control at 100 ppm: < 25%
[7]
  inhibition at 25 ppm: > 80%
Septoria tritici—SEPTTR; [10]
  pest or weed control at 100 ppm: 25 to 74%
[8]; 25 ppm in growth medium
  inhibition at 25 ppm: > 80%

## COc1ccnc(C(=O)NC(COC(=O)C(C)Cc2ccccc2)C(=O)OC(C)C)c1O (stereo not shown) [Compound 351]
[1]; 25 ppm in growth medium
  inhibition at 25 ppm: < 80%
[2]
  inhibition at 25 ppm: < 80%
[3]
  inhibition at 25 ppm: < 80%
Ustilago maydis (USTIMA)
  inhibition at 25 ppm: > 80%
[4]; [11]
  pest or weed control at 100 ppm: 25 to 74%
Erysiphe graminis—ERYSGT; [11]
  pest or weed control at 100 ppm: < 25%
[5]; [11]
  PUCCRT in vivo 1 Day Protectant: + +
[6]
  pest or weed control at 100 ppm: < 25%
[7]
  inhibition at 25 ppm: < 80%
Septoria tritici—SEPTTR; [11]
  pest or weed control at 100 ppm: < 25%
[8]; 25 ppm in growth medium
  inhibition at 25 ppm: < 80%

Reference: patent US6706740B2, “Fungicidal heterocyclic aromatic amides and their compositions, methods of use and preparation” (Dow AgroSciences LLC, priority 1999, dated 2004)
